These results are taken from US9895338B1, “Cobalt-polypyridyl complex for treatment of cancer, a pharmaceutical composition and a kit comprising it” (Macau University of Science and Technology, priority 2016, dated 2018).

For data set [1], the system named is OV2008/C13 cervical cancer cells. As to the kind of experiment: MTT cytotoxicity, OV2008/C13 (cisplatin-resistant). Format: cell-based. Here is the method:
(§1) All prepared cobalt-polypyridyl complexes were dissolved in DMSO at a final concentration of 50 mmol/L and stored at −20° C. before use. Cytotoxicity was assessed by using the 3-(4,5-dimethylthiazol-2-yl)-2,5-diphenyltetrazolium bromide (MTT) (5.0 mg/ml) assay as previously described (Wong, V. K. et al., Cell Death Dis, 2013, 4, e720). Briefly, 4×10^3 cells per well were seeded in 96-well plates before drug treatments. After overnight culture, the cells were then exposed to different concentrations of selected compounds (0.039-100 μmol/L) for 72 h. Cells without drug treatment were used as control. Subsequently, MTT (10 μL) solution was added to each well and incubated at 37° C. for 4 h followed by the addition of 100 μL solubilization buffer (10% SDS in 0.01 mol/L HCl) and overnight incubation. A570 nm was then determined in each well on the next day. The percentage of cell viability was calculated using the following formula: Cell viability (%)=Atreated/Acontrol×100. Data were obtained from three independent experiments.
(§2) Cisplatin-sensitive or -resistant A2780, OV2008 and C13 cancer cells were provided by Prof. Benjamin Tsang (Department of Obstetrics and Gynecology and Department of Cellular and Molecular Medicine, University of Ottawa, Canada). HCT116 p53^+/+ and p53^−/− isogenic human colon cancer cells were provided by Professor Bert Vogelstein (Ludwig Center at Johns Hopkins, Howard Hughes Medical Institute, USA). All media were supplemented with 10% fetal bovine serum and the antibiotics penicillin (50 U/ml) and streptomycin (50 μg/ml; Invitrogen, Paisley, Scotland, UK). All cell cultures were incubated at 37° C. in a 5% humidified CO2 incubator.

The subject of data set [2] is HCT116 p53^−/− colon cancer cells. As to the kind of experiment: MTT cytotoxicity, HCT116 p53-/-. Format: cell-based, human. Here is the method:
as §1, §2

Data set [3] relates to Taxol-resistant A549 cancer cells. The data set is described as follows: MTT cytotoxicity, taxol-resistant A549. Format: cell-based. Here is the method: as §1
(§3) All cells were obtained from the American Type Culture Collection (Rockville, Md., USA) unless otherwise specified. Immortalized wild-type and Atg7-deficient mouse embryonic fibroblasts (MEFs) were provided by Professor Masaaki Komatsu (Juntendo University, School of Medicine, Japan). Taxol-resistant types of A549, MCF-7, HCT-8 cancer cells, cisplatin-resistant SGC7901 cancer cells were purchased from KeyGEN BioTECH, China.

The test system of the next data set is MCF-7 (breast cancer). As to the kind of experiment: MTT cytotoxicity assay, MCF-7. Format: cell-based. The settings on record: MCF-7, MTT, 72 h. Here is the method:
as §1, with “experiments. Cells include HeLa cells (cervical cancer), MCF-7 (breast cancer), H1299, H1975, A549 and LLC-1 (lung cancer), HepG2 and Hep3B (liver cancer) and LO2 (normal human hepatocytes).” for “experiments.”
(Formazan colour is commonly taken as a measure of viable cells.)

Data set [4] in a line: Body weight in mouse lung cancer xenograft model. Format: in vivo. The conditions noted are these: IP 40 mg/kg/day, tumor-bearing mice. The source says: The mice were maintained under specific pathogen-free condition in a 12-h light-dark cycle. Experimental conditions were followed in accordance to the “Institutional AnimalCare and User Committee guidelines” of the Macau University of Science and Technology. Xenograft mouse model was constructed as previously described (Wong, V. K. et al., Oncotarget, 2016, 7, 9907-9924). LLC-1 Lewis lung cancer cells (1×10^6 cells) were subcutaneously injected in the right dorsal region of the mice. After tumors grew to about 100 mm^3, the mice were randomly divided into 3 groups: 1) the control group, 2) 40 mg/kg cobalt-polypyridyl complex of Formula (IV) group, and 3) 40 mg/kg cobalt-polypyridyl complex of Formula (IV) as chloride, also referenced as (IV)-Cl (water soluble form) group. The cobalt-polypyridyl complex of Formula (IV) was dissolved in 100 μL buffer (PEG400:EtOH:ddH2O=6:1:3), whereas (IV)-Cl (water soluble form) was dissolved in ddH2O. The complexes were then intraperitoneal injected in mice every day. The body weight of each mouse was recorded with the tumor volume determined by Vernier caliper using the formula of L×W^2×0.52, where L is the longest diameter of tumor and W is the shortest diameter of tumor. Mice with tumor implants were sacrificed after 10 days when the tumor size of vehicle control group reached above 1000 mm^3 due to animal ethical issue.

Data set [5] deals with cisplatin-sensitive A2780 ovarian cancer cells. The data set is described as follows: MTT cytotoxicity, cisplatin-sensitive A2780. Format: cell-based. The settings on record: 72 h. Here is the method:
as §1, §2

The test system of data set [6] is cisplatin-sensitive SGC-7901 gastric cancer cells. The data set is described as follows: MTT cytotoxicity, cisplatin-sensitive SGC-7901. Format: cell-based. The settings on record: SGC-7901, MTT, 72 h. Here is the method:
as §1

Data set [7] concerns LO2 (normal human hepatocytes). As to the kind of experiment: MTT cytotoxicity assay, LO2. It counts as cell-based. The settings on record: 72 h. Here is the method: as §1, with “experiments. Cells include HeLa cells (cervical cancer), MCF-7 (breast cancer), H1299, H1975, A549 and LLC-1 (lung cancer), HepG2 and Hep3B (liver cancer) and LO2 (normal human hepatocytes).” for “experiments.”

Data set [8] relates to cisplatin-resistant SGC-7901 gastric cancer cells. As to the kind of experiment: MTT cytotoxicity, cisplatin-resistant SGC-7901. Format: cell-based. Here is the method:
as §1, §3

Data set [9] concerns Taxol-sensitive MCF-7 cancer cells. As to the kind of experiment: MTT cytotoxicity, taxol-sensitive MCF-7. It counts as cell-based. The conditions noted are these: MCF-7, MTT, 72 h. Here is the method:
as §1

For a further data set, the system named is A549 (lung cancer). The data set is described as follows: MTT cytotoxicity assay, A549. Format: cell-based. The conditions noted are these: 72 h. Here is the method:
as §1, with “experiments. Cells include HeLa cells (cervical cancer), MCF-7 (breast cancer), H1299, H1975, A549 and LLC-1 (lung cancer), HepG2 and Hep3B (liver cancer) and LO2 (normal human hepatocytes).” for “experiments.”

In data set [10] the test system is Taxol-resistant HCT8 cancer cells. As to the kind of experiment: MTT cytotoxicity, taxol-resistant HCT8. Format: cell-based. Here is the method:
as §1, §3

The test system of data set [11] is cisplatin-resistant A2780 ovarian cancer cells. The data set is described as follows: MTT cytotoxicity, cisplatin-resistant A2780. It counts as cell-based. Here is the method:
as §1, §2

In general, IC50 refers to the midpoint of a concentration-inhibition curve. Consider `Cc1ccnc(-c2cc(C)ccn2)c1.Cc1ccnc(-c2cc(C)ccn2)c1.Cc1ccnc(-c2cc(C)ccn2)c1.F[P-](F)(F)(F)(F)F.F[P-](F)(F)(F)(F)F.F[P-](F)(F)(F)(F)F.[Co+3]` [complex (IV), [Co^III(4,4′-Me2-Bpy)3.](PF6)3], for which the IC50 in data set [1] (OV2008/C13, MTT, 72 h) was determined as 7.59 µM; in data set [2] (MTT, 72 h), 9.07 µM; in data set [3] (A549, MTT, 72 h), 2.85 µM; in the data set on MCF-7 (breast cancer), 6.03 µM; in [5] it was 12.3 µM; in data set [6], 11.1 µM. Besides, the IC50 was determined as 13.2 µM in [7]; 12.6 µM in data set [8] (SGC-7901, MTT, 72 h); 4 µM in data set [9]; 7.86 µM with A549 (lung cancer); 1.22 µM in data set [10] (HCT8, MTT, 72 h); 10.7 µM in data set [11] (A2780, MTT, 72 h). The “Resistant Factor” value in data set [1] (OV2008/C13 over OV2008) is reported as 1.0; in [2] (HCT116 p53^−/− over HCT116 p53^+/+), 0.59; in data set [3] (A549, IC50 taxol-resistant over IC50 taxol-sensitive), 0.25; in data set [8] (SGC-7901, cisplatin-resistant over cisplatin-sensitive), 1.14; in data set [10] (HCT8, IC50 taxol-resistant over IC50 taxol-sensitive), 0.36; in [11] (A2780, cisplatin-resistant over cisplatin-sensitive), 0.87. The “reduction in body weight” value in data set [4] is recorded as “no significant reduction in body weight”.
